Literature values, collected in US20070281007A1, “Mucoadhesive Oral Formulations of High Permeability, High Solubility Drugs” (priority 2004, published 2007).
Read-outs that look alike come from different tables or passages of the source.

Structure (SMILES)	bioavailability (at best, 900 mg dose, given three times a day) [%]	bioavailability (in vivo) [%]
NCC1(CC(=O)O)CCCCC1 [gabapentin]	60	–
CC(C)[C@H](N)C(=O)OCCOCn1cnc2c(=O)[nH]c(N)nc21 [valacyclovir]	–	~50
